# Laboratory results published in patent publication US12077534B2, “Aza-heterobicyclic inhibitors of MAT2A and methods of use for treating cancer” (Les Laboratoires Servier SAS, priority 2018, dated 2024).
# pIC50: −log10 of the molar value.
# Columns and labels:
# [1] = molecular target: T1, MAT2A homodimer (Homo sapiens, UniProt P31153); assay: MAT2A biochemical assay (phosphate release, PiColorLock Gold); details: recombinant MAT2A homodimer, 60 min pre-incubation, 25° C.; read-out: Enzyme Inhibition
# T1 construct: inferred from Ni sepharose purification and imidazole elution; made in house; host or cells: SF9 insect cells, recombinant baculovirus (Bac to Bac, pFASTBAC1)
# Summary of the method: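 Baculovirus/Sf9-expressed, Ni-purified MAT2A homodimer (4 µg/mL in pH 8.0 Tris/KCl/MgCl2 buffer) preincubated 60 min at 25 °C with compound (2% DMSO final). Substrate mix of 500 µM ATP and 400 µM L-methionine added; 60 min at 25 °C; released phosphate quantified colorimetrically against a phosphate standard curve.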
# [2] = system: MAT2A activity (SAM) in HCT116 cells with deleted MTAP gene; assay: Cellular assay of target engagement (SAM) by LC-MS/MS; type: cell-based; details: Homo sapiens, HCT-116; HCT116 MTAP −/−, 72 hrs; read-out: Cell 72 h SAM Inhibition (MTAP −/−)
# Summary of the method: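 HCT116 MTAP-deleted cells treated with 10-point 3-fold DMSO serial dilutions of compound for 72 hrs at 37° C. Cells lysed in cold 80% methanol/acetic acid extraction buffer with d3-SAM internal standard; SAM quantified by LC-MS/MS (MRM m/z 399.2→250.1).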
# [3] = system: HCT116 MTAP−/−; assay: Inhibition of cellular proliferation (Cell Titer Glo), HCT116 MTAP-/-; type: cell-based; details: Homo sapiens, HCT-116, 96 h, 4 days, read-out: 4 Day Relative Growth Inhibition (MTAP −/−)
# Summary of the method: (§1)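 Isogenic HCT116 MTAP+/+ and MTAP−/− cells treated 24 h after plating with 10-point 3-fold dilutions, then grown 4 days at 37 °C/5% CO2. ATP content read by Cell Titer Glo luminescence, blank-subtracted and normalized to 0.2% DMSO control, plotted as percent proliferation change versus log molar concentration.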
# [4] = system: HCT116 MTAP+/+; assay: Inhibition of cellular proliferation (Cell Titer Glo), HCT116 MTAP+/+; type: cell-based; details: Homo sapiens, HCT-116, 96 h, 4 days, read-out: 4 Day Relative Growth Inhibition (MTAP +/+)
# Summary of the method: as §1
# T1 sequence (P31153 whole entry): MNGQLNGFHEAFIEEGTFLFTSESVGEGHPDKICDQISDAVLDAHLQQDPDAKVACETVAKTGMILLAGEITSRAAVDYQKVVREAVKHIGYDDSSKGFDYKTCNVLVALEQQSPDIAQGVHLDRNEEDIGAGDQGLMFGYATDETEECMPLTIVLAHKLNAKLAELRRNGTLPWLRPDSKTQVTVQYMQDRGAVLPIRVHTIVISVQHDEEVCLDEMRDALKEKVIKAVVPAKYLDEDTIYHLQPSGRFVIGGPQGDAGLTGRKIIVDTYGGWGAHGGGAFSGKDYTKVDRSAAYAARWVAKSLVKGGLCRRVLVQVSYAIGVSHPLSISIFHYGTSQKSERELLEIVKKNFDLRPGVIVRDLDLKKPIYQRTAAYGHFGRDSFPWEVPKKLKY
Structure (SMILES),pIC50 [1],pIC50 [2],pIC50 [3],pIC50 [4]
"CCOc1ccc2nn(-c3ccc4nn(C)cc4c3)c(=O)c(-c3ccc(Br)cc3)c2n1 [Example 198, 4-(4-bromophenyl)-6-ethoxy-2-(2-methyl-2H-indazol-5-yl)pyrido[3,2-c]pyridazin-3(2H)-one]",> 7.00,> 7.00,> 7.00,≤ 6.00
"CC(C)Oc1ccc2nn(-c3ccc4nn(C)cc4c3)c(=O)c(-c3ccc(Br)cc3)c2n1 [Example 199, 4-(4-bromophenyl)-6-isopropoxy-2-(2-methyl-2H-indazol-5-yl)pyrido[3,2-c]pyridazin-3(2H)-one]",> 7.00,> 7.00,> 7.00,≤ 6.00
"Cn1cc2cc(-n3nc4ccc(OCC(F)F)nc4c(-c4ccc(Br)cc4)c3=O)ccc2n1 [Example 200, 4-(4-bromophenyl)-6-(2,2-difluoroethoxy)-2-(2-methyl-2H-indazol-5-yl)pyrido[3,2-c]pyridazin-3(2H)-one]",> 7.00,> 7.00,> 7.00,≤ 6.00
"O=c1c(-c2ccc(Br)cc2)c2nc(OCC(F)F)ccc2nn1-c1ccc2ncsc2c1 [Example 201, 2-(benzo[d]thiazol-6-yl)-4-(4-bromophenyl)-6-(2,2-difluoroethoxy)pyrido[3,2-c]pyridazin-3(2H)-one]",> 7.00,> 7.00,> 7.00,≤ 6.00
"CC(C)Oc1ccc2nn(-c3ccc4ncsc4c3)c(=O)c(-c3ccc(Br)cc3)c2n1 [Example 202, 2-(benzo[d]thiazol-6-yl)-4-(4-bromophenyl)-6-isopropoxypyrido[3,2-c]pyridazin-3(2H)-one]",> 7.00,> 7.00,> 7.00,≤ 6.00
"CN(C)c1c2cc(-n3nc4ccc(OCC(F)F)nc4c(-c4ccc(OC(F)F)cc4)c3=O)ccc2nn1C [Example 203, 6-(2,2-difluoroethoxy)-4-(4-(difluoromethoxy)phenyl)-2-(3-(dimethylamino)-2-methyl-2H-indazol-5-yl)pyrido[3,2-c]pyridazin-3(2H)-one]",> 7.00,> 7.00,> 7.00,6.00 to 7.00
"CCCc1ccc2nn(-c3ccc4nn(C)cc4c3)c(=O)c(-c3ccc(OC(F)F)cc3)c2n1 [Example 205, 4-(4-(difluoromethoxy)phenyl)-2-(2-methyl-2H-indazol-5-yl)-6-propylpyrido[3,2-c]pyridazin-3(2H)-one]",> 7.00,> 7.00,> 7.00,≤ 6.00
"Cn1cc2cc(-n3nc4ccc(OCC(F)F)nc4c(C4CCCCC4)c3=O)ccc2n1 [Example 206, 4-cyclohexyl-6-(2,2-difluoroethoxy)-2-(2-methyl-2H-indazol-5-yl)pyrido[3,2-c]pyridazin-3(2H)-one]",> 7.00,6.00 to 7.00,6.00 to 7.00,≤ 6.00
"Cn1cc2cc(-n3nc4ccc(OCC(F)F)nc4c(-c4ccc(O)cc4)c3=O)ccc2n1 [Example 207, 6-(2,2-difluoroethoxy)-4-(4-hydroxyphenyl)-2-(2-methyl-2H-indazol-5-yl)pyrido[3,2-c]pyridazin-3(2H)-one]",> 7.00,> 7.00,6.00 to 7.00,≤ 6.00
"CCc1c2cc(-n3nc4ccc(OCC(F)F)nc4c(-c4ccc(OC(F)F)cc4)c3=O)ccc2nn1C [Example 208, 6-(2,2-difluoroethoxy)-4-(4-(difluoromethoxy)phenyl)-2-(3-ethyl-2-methyl-2H-indazol-5-yl)pyrido[3,2-c]pyridazin-3(2H)-one]",> 7.00,> 7.00,> 7.00,6.00 to 7.00
"Cn1cc2cc(-n3nc4c(CO)cc(OCC(F)F)nc4c(-c4ccc(OC(F)F)cc4)c3=O)ccc2n1 [Example 209, 6-(2,2-difluoroethoxy)-4-(4-(difluoromethoxy)phenyl)-8-(hydroxymethyl)-2-(2-methyl-2H-indazol-5-yl)pyrido[3,2-c]pyridazin-3(2H)-one]",> 7.00,> 7.00,> 7.00,≤ 6.00
"Cn1cc2cc(-n3nc4c(C(F)F)cc(OCC(F)F)nc4c(-c4ccc(OC(F)F)cc4)c3=O)ccc2n1 [Example 210, 6-(2,2-difluoroethoxy)-4-(4-(difluoromethoxy)phenyl)-8-(difluoromethyl)-2-(2-methyl-2H-indazol-5-yl)pyrido[3,2-c]pyridazin-3(2H)-one]",> 7.00,> 7.00,6.00 to 7.00,≤ 6.00
"CN(C)Cc1cc(OCC(F)F)nc2c(-c3ccc(OC(F)F)cc3)c(=O)n(-c3ccc4nn(C)cc4c3)nc12 [Example 211, 6-(2,2-difluoroethoxy)-4-(4-(difluoromethoxy)phenyl)-8-((dimethylamino)methyl)-2-(2-methyl-2H-indazol-5-yl)pyrido[3,2-c]pyridazin-3(2H)-one]",> 7.00,6.00 to 7.00,6.00 to 7.00,≤ 6.00
"Cn1cc2cc(-n3nc4c(N)cc(OCC(F)F)nc4c(-c4ccc(OC(F)F)cc4)c3=O)ccc2n1 [Example 212, 8-amino-6-(2,2-difluoroethoxy)-4-(4-(difluoromethoxy)phenyl)-2-(2-methyl-2H-indazol-5-yl)pyrido[3,2-c]pyridazin-3(2H)-one]",> 7.00,> 7.00,> 7.00,6.00 to 7.00
"C#Cc1c(=O)n(-c2ccc3nn(C)cc3c2)nc2ccc(OCC(F)F)nc12 [Example 214, 6-(2,2-difluoroethoxy)-4-ethynyl-2-(2-methyl-2H-indazol-5-yl)pyrido[3,2-c]pyridazin-3(2H)-one]",6.00 to 7.00,< 6.00,≤ 6.00,≤ 6.00
"Cn1cc2cc(-n3nc4ccc(OCC(F)F)nc4c(C#Cc4cc[nH]n4)c3=O)ccc2n1 [Example 215, 4-((1H-pyrazol-3-yl)ethynyl)-6-(2,2-difluoroethoxy)-2-(2-methyl-2H-indazol-5-yl)pyrido[3,2-c]pyridazin-3(2H)-one]",> 7.00,< 6.00,6.00 to 7.00,≤ 6.00
"CCOc1ccc2nn(-c3ccc4nn(C)cc4c3)c(=O)c(-c3ccc(OC(F)F)cc3)c2n1 [Example 217, 4-(4-(difluoromethoxy)phenyl)-6-ethoxy-2-(2-methyl-2H-indazol-5-yl)pyrido[3,2-c]pyridazin-3(2H)-one]",> 7.00,> 7.00,> 7.00,6.00 to 7.00
"Cc1ccc(-c2c(=O)n(-c3ccc4nn(C)cc4c3)nc3ccc(NCC(F)(F)F)nc23)cn1 [Example 301, 2-(2-methyl-2H-indazol-5-yl)-4-(6-methylpyridin-3-yl)-6-((2,2,2-trifluoroethyl)amino)pyrido[3,2-c]pyridazin-3(2H)-one]",> 7.00,> 7.00,> 7.00,≤ 6.00
Cc1ccc(-c2c(=O)n(-c3ccc4nn(C)cc4c3)nc3ccc(OCC4CC4)nc23)cn1 [Example 302],> 7.00,> 7.00,> 7.00,≤ 6.00
Cn1cc2cc(-n3nc4ccc(OCC5CC5)nc4c(-c4ccc(C5CC5)nc4)c3=O)ccc2n1 [Example 303],> 7.00,> 7.00,> 7.00,≤ 6.00
O=c1c(-c2ccc(C3CC3)cc2)c2nc(OCC(F)F)ccc2nn1-c1ccc2ncsc2c1 [Example 304],> 7.00,> 7.00,6.00 to 7.00,6.00 to 7.00
CCNc1ccc2nn(-c3ccc4nn(C)cc4c3)c(=O)c(-c3ccc(C)nc3)c2n1 [Example 305],> 7.00,> 7.00,> 7.00,≤ 6.00
CCNc1ccc2nn(-c3ccc4nn(C)cc4c3)c(=O)c(-c3ccc(OC)nc3)c2n1 [Example 307],> 7.00,> 7.00,> 7.00,≤ 6.00
CCNc1ccc2nn(-c3ccc4nn(C)cc4c3)c(=O)c(-c3ccc(C4CC4)nc3)c2n1 [Example 309],> 7.00,> 7.00,> 7.00,≤ 6.00
CCNc1ccc2nn(-c3ccc4nn(C)cc4c3)c(=O)c(-c3ccc(C(F)F)nc3)c2n1 [Example 310],> 7.00,> 7.00,> 7.00,≤ 6.00
CCNc1ccc2nn(-c3ccc4nn(C)cc4c3)c(=O)c(-c3ccc(OC(F)F)nc3)c2n1 [Example 313],> 7.00,> 7.00,> 7.00,6.00 to 7.00
Cn1cc2cc(-n3nc4ccc(NCC5CC5)nc4c(-c4ccc(C5CC5)nc4)c3=O)ccc2n1 [Example 315],> 7.00,> 7.00,> 7.00,≤ 6.00
CCNc1ccc2nn(-c3ccc4nn(C)cc4c3)c(=O)c(-c3ccc(C(F)(F)F)nc3)c2n1 [Example 316],> 7.00,> 7.00,> 7.00,≤ 6.00
